Measured values reported in patent publication US10508088B2, “Methods using HDAC11 inhibitors” (FORMA Therapeutics, Inc., priority 2016, dated 2019).

Each molecule was assayed against Recombinant N-terminal GST tag full-length human HDAC11 (Homo sapiens (Human), UniProt Q96DB2) (assay: Probe binding HDAC11 assay, time resolved fluorescence (TRF)). Conditions: read-out: HDAC11 IC50 Range.
Experimental: The probe binding HDAC11 assay was performed using a time resolved fluorescence (TRF) assay format. Recombinant N-terminal GST tag full-length human HDAC11 was expressed and purified from baculovirus in Sf9 insect cells (SignalChem, # H93-30G-1000). Each assay was performed in 1536 black well microplates (Corning, #3936) in a final volume of 8 μL in assay buffer containing 50 mM HEPES (pH 7.5), 50 mM KCl, 50 mM NaCl, 0.5 mM GSH (L-Glutathione reduced, Sigma #G4251), 0.03% BGG (0.22 μM filtered, Sigma, #G7516-25G), and 0.01% Triton X-100 (Sigma, #T9284-10L). 100 nL of 10-point, 3-fold serial dilution in DMSO was pre-dispensed into respective wells of 1536 assay plates for a final test concentration range of 25 μM to 1.3 nM respectively. The final concentration in the assay of HDAC11 and probe (a fluorescein labeled HDAC 11 inhibitor) was 2.5 nM and 20 nM respectively. 4 μL of 2× probe and 2× anti-GST Terbium (Cisbio, #61GSTXLB) was added to assay plates followed by 4 μL of 2×HDAC11. Plates were incubated for 16 hours at room temperature before time resolved fluorescence was read on the Envision (Excitation at 340 nm, and Emission at 485 nm and 535 nm, Perkin Elmer).
Data from HDAC11 Assays were reported as percent inhibition (inh) compared with control wells based on the following equation: % inh=1−((FLU−AveLow)/(AveHigh−AveLow)) where FLU=measured time resolved fluorescence. AveLow=average time resolved fluorescence of no enzyme control (n=32). AveHigh=average time resolved fluorescence of DMSO control (n=32). IC50 values were determined by curve fitting of the standard 4 parameter logistic fitting algorithm included in the Activity Base software package: IDBS XE Designer Model205. Data is fitted using the Levenburg Marquardt algorithm.

Chain of Recombinant N-terminal GST tag full-length human HDAC11 (Q96DB2 whole entry): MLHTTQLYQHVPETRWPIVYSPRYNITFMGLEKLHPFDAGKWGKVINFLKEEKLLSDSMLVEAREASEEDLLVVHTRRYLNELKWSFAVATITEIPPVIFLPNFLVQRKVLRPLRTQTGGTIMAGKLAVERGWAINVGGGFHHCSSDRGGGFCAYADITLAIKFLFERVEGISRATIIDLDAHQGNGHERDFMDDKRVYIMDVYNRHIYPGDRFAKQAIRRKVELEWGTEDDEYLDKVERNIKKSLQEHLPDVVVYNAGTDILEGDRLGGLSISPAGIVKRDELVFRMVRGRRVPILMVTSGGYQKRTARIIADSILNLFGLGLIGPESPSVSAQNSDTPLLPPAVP

Row | SMILES | IC50 [µM]
1 | NCCCCCn1c(Nc2cccc(C(=O)NO)c2)nc2cc(Cl)c(F)cc21 [Example 22-2, 3-((1-(5-aminopentyl)-5-chloro-6-fluoro-1H-benzo[d]imidazol-2-yl)amino)-N-hydroxybenzamide] | < 0.5
2 | COCCn1c(Nc2cccc(C(=O)NO)c2)nc2ccccc21 [Example 23-1, N-hydroxy-3-((1-(2-methoxyethyl)-1H-benzo[d]imidazol-2-yl)amino)benzamide] | > 1
3 | O=C(NO)c1cc(Nc2nc3ccccc3[nH]2)cc2ccccc12 [Example 23-2, 3-((1H-benzo[d]imidazol-2-yl)amino)-N-hydroxy-1-naphthamide] | > 1
4 | COCCn1c(Nc2cc(C(=O)NO)c3ccccc3c2)nc2ccccc21 [Example 23-3, N-hydroxy-3-((1-(2-methoxyethyl)-1H-benzo[d]imidazol-2-yl)amino)-1-naphthamide] | > 1
5 | Cc1cc2nc(Nc3cccc(C(=O)NO)c3)[nH]c2cc1C [Example 23-4, 3-((5,6-dimethyl-1H-benzo[d]imidazol-2-yl)amino)-N-hydroxybenzamide] | < 0.5
6 | COCCn1c(Nc2cccc(C(=O)NO)c2)nc2c(OC)cccc21 [Example 24-1, N-hydroxy-3-((4-methoxy-1-(2-methoxyethyl)-1H-benzo[d]imidazol-2-yl)amino)benzamide] | > 1
7 | COCCn1c(Nc2cccc(C(=O)NO)c2)nc2cccc(OC)c21 [Example 24-2, N-hydroxy-3-((7-methoxy-1-(2-methoxyethyl)-1H-benzo[d]imidazol-2-yl)amino)benzamide] | > 1
8 | COCCN(c1cccc(C(=O)NO)c1)c1nc2ccccc2[nH]1 [Example 25-1, 3-((1H-benzo[d]imidazol-2-yl)(2-methoxyethyl)amino)-N-hydroxybenzamide] | > 1
9 | N#Cc1cc2nc(Oc3cccc(C(=O)NO)c3)[nH]c2cc1C(F)(F)F [Example 26-1, 3-((5-cyano-6-(trifluoromethyl)-1H-benzo[d]imidazol-2-yl)oxy)-N-hydroxybenzamide] | > 1
10 | N#Cc1cc2nc(Cc3cccc(C(=O)NO)c3)[nH]c2cc1C(F)(F)F [Example 27-1, 3-((5-cyano-6-(trifluoromethyl)-1H-benzo[d]imidazol-2-yl)methyl)-N-hydroxybenzamide] | < 0.5
11 | O=C(NO)c1cccc(Cc2nc3cc(Cl)c(Cl)cc3[nH]2)c1 [Example 27-2, 3-((5,6-dichloro-1H-benzo[d]imidazol-2-yl)methyl)-N-hydroxybenzamide] | < 0.5
12 | O=C(NO)c1cccc(Nc2cc3cc(Cl)c(Cl)cc3[nH]2)c1 [Example 28-1, 3-((5,6-dichloro-1H-indol-2-yl)amino)-N-hydroxybenzamide] | < 0.5
13 | O=C(NO)c1cccc(Nc2nc3nccnc3[nH]2)c1 [Example 29-1, 3-((1H-imidazo[4,5-b]pyrazin-2-yl)amino)-N-hydroxybenzamide] | > 1
14 | O=C(NO)c1cccc(Nc2nc3cncnc3[nH]2)c1 [Example 30-1, 3-((9H-purin-8-yl)amino)-N-hydroxybenzamide] | > 1
15 | O=C(NO)c1cccc(Nc2nc3cc(Cl)c(Cl)cc3o2)n1 [Example 31-1, 6-((5,6-dichlorobenzo[d]oxazol-2-yl)amino)-N-hydroxypicolinamide] | < 0.5
16 | O=C(NO)c1cccc(Nc2nc3ncccc3o2)c1 [Example 32-1, N-hydroxy-3-(oxazolo[4,5-b]pyridin-2-ylamino)benzamide] | > 1
17 | O=C(NO)c1cccc(Nc2nc3ncc(C(F)(F)F)cc3o2)c1 [Example 32-2, N-hydroxy-3-((6-(trifluoromethyl)oxazolo[4,5-b]pyridin-2-yl)amino)benzamide] | < 0.5
18 | O=C(NO)c1cccc(Nc2nc3cc(F)c(Cl)cc3[nH]2)c1 [Example 33-1, 3-((6-chloro-5-fluoro-1H-benzo[d]imidazol-2-yl)amino)-N-hydroxybenzamide] | < 0.5
19 | Cc1cc2[nH]c(Nc3cccc(C(=O)NO)c3)nc2cc1Cl [Example 33-2, 3-((5-chloro-6-methyl-1H-benzo[d]imidazol-2-yl)amino)-N-hydroxybenzamide] | < 0.5
20 | O=C(NO)c1cccc(Nc2nc3cc(F)c(F)cc3[nH]2)c1 [Example 33-3, 3-((5,6-difluoro-1H-benzo[d]imidazol-2-yl)amino)-N-hydroxybenzamide] | 0.5 to 1

Row | SMILES | IC50 [µM]
21 | O=C(NO)c1cccc(Nc2nc3cc4c(cc3[nH]2)OCO4)c1 [Example 33-4, 3-((5H-[1,3]dioxolo[4′,5′:4,5]benzo[1,2-d]imidazol-6-yl)amino)-N-hydroxybenzamide] | > 1
22 | O=C(NO)c1cccc(Nc2nc3cc(F)c(C(F)(F)F)cc3[nH]2)c1 [Example 33-5, 3-((5-fluoro-6-(trifluoromethyl)-1H-benzo[d]imidazol-2-yl)amino)-N-hydroxybenzamide] | < 0.5
23 | O=C(NO)c1cccc(Nc2nc3cc(Cl)c(C(F)(F)F)cc3[nH]2)c1 [Example 33-6, 3-((5-chloro-6-(trifluoromethyl)-1H-benzo[d]imidazol-2-yl)amino)-N-hydroxybenzamide] | < 0.5
24 | O=C(NO)c1cccc(Nc2nc3cc(Br)c(OC(F)(F)F)cc3[nH]2)c1 [Example 33-7, 3-((5-bromo-6-(trifluoromethoxy)-1H-benzo[d]imidazol-2-yl)amino)-N-hydroxybenzamide] | < 0.5
25 | O=C(NO)c1cccc(Nc2nc3cc4c(cc3[nH]2)OCCCO4)c1 [Example 33-8, 3-((7,8-dihydro-1H,6H-[1,4]dioxepino[2′,3′:4,5]benzo[1,2-d]imidazol-2-yl)amino)-N-hydroxybenzamide] | > 1
26 | O=C(NO)c1cccc(Nc2nc3cc4c(cc3[nH]2)OCCO4)c1 [Example 33-9, 3-((6,7-dihydro-1H-[1,4]dioxino[2′,3′:4,5]benzo[1,2-d]imidazol-2-yl)amino)-N-hydroxybenzamide] | 0.5 to 1
27 | Cc1cc2[nH]c(Nc3cccc(C(=O)NO)c3)nc2cc1F [Example 33-10, 3-((5-fluoro-6-methyl-1H-benzo[d]imidazol-2-yl)amino)-N-hydroxybenzamide] | < 0.5
28 | O=C(NO)c1cccc(Nc2nc3cc(Br)c(C(F)(F)F)cc3[nH]2)c1 [Example 33-11, 3-((5-bromo-6-(trifluoromethyl)-1H-benzo[d]imidazol-2-yl)amino)-N-hydroxybenzamide] | < 0.5
29 | Cc1cc2[nH]c(Nc3cccc(C(=O)NO)c3)nc2cc1Br [Example 33-12, 3-((5-bromo-6-methyl-1H-benzo[d]imidazol-2-yl)amino)-N-hydroxybenzamide] | < 0.5
30 | COc1cc2nc(Nc3cccc(C(=O)NO)c3)[nH]c2cc1OC [Example 33-13, 3-((5,6-dimethoxy-1H-benzo[d]imidazol-2-yl)amino)-N-hydroxybenzamide] | > 1
31 | O=C(NO)c1cccc(Nc2nc3cc(Cl)c(Cl)cc3[nH]2)c1 [Example 33-14, 3-((5,6-dichloro-1H-benzo[d]imidazol-2-yl)amino)-N-hydroxybenzamide] | < 0.5
32 | O=C(NO)c1cccc(Nc2nc3cc(Cl)c([N+](=O)[O-])cc3[nH]2)c1 [Example 33-15, 3-((5-chloro-6-nitro-1H-benzo[d]imidazol-2-yl)amino)-N-hydroxybenzamide] | < 0.5
33 | O=C(NO)c1cccc(Nc2nc3cc(F)c(Br)cc3[nH]2)c1 [Example 33-16, 3-((6-bromo-5-fluoro-1H-benzo[d]imidazol-2-yl)amino)-N-hydroxybenzamide] | < 0.5
34 | O=C1COc2cc3[nH]c(Nc4cccc(C(=O)NO)c4)nc3cc2N1 [Example 33-18, N-hydroxy-3-((7-oxo-3,6,7,8-tetrahydroimidazo[4′,5′:4,5]benzo[1,2-b][1,4]oxazin-2-yl)amino)benzamide] | > 1
35 | COc1cc2nc(Nc3cccc(C(=O)NO)c3)[nH]c2cc1Cl [Example 33-19, 3-((6-chloro-5-methoxy-1H-benzo[d]imidazol-2-yl)amino)-N-hydroxybenzamide] | 0.5 to 1
36 | O=C(NO)c1cccc(Nc2nc3cc(Cl)ccc3[nH]2)c1 [Example 33-20, 3-((5-chloro-1H-benzo[d]imidazol-2-yl)amino)-N-hydroxybenzamide] | > 1
37 | O=C(NO)c1cccc(Nc2nc3cc([N+](=O)[O-])ccc3[nH]2)c1 [Example 33-21, N-hydroxy-3-((5-nitro-1H-benzo[d]imidazol-2-yl)amino)benzamide] | 0.5 to 1
38 | O=C(NO)c1cccc(Nc2nc3cc(C(F)(F)F)ccc3[nH]2)c1 [Example 33-22, N-hydroxy-3-((5-(trifluoromethyl)-1H-benzo[d]imidazol-2-yl)amino)benzamide] | < 0.5
39 | CS(=O)(=O)c1ccc2[nH]c(Nc3cccc(C(=O)NO)c3)nc2c1 [Example 33-23, N-hydroxy-3-((5-(methylsulfonyl)-1H-benzo[d]imidazol-2-yl)amino)benzamide] | > 1
